Data published in patent publication US20190175601A1, “COMPOSITION FOR INHIBITING OR ALLEVIATING ITCHING INCLUDING RIBOFLAVIN” (INDUSTRY-UNIVERSITY COOPERATION FOUNDATION HANYANG …, priority 2016, published 2019).

What was measured:
[1] = test system: histamine-induced itching; assay: Histamine-induced itching animal behavioral test, preparations for oral administration; assay type: in vivo, male C57BL/6 mice; conditions: FIG. 1
Method: An effect of inhibiting or alleviating itching was tested using the preparations for oral administration prepared according to Preparation Example 1. For the test, an animal behavioral test was performed using the mouse model disclosed in Non-Patent Document 6.
Groups each including 10 male C57BL/6 mice weighing 20 g to 23 g were used in the test. These groups were accommodated under control of a temperature of 23° C. to 25° C. The mice were freely fed food and water. For the itching-induced animal behavioral model test, the mice were orally administered the preparations for oral administration having different concentrations of riboflavin, which were prepared according to Preparation Example 1 (100 mg/kg, 300 mg/kg, or 600 mg/kg). In addition, the mice were treated with the control prepared according to Preparation Example 1.
To induce scratching, histamine, which is known to cause an itching sensation in humans, was used. At this time, histamine was dissolved in sterile physiological saline. 30 minutes after administration of the preparations for oral administration, 50 μl (500 μg/site) of histamine was injected intradermally into the back of the neck of each mouse.
The results were analyzed by calculating the mean and standard deviation, and a statistical difference of mean values was determined using a Student's t-test.

[2] = test system: histamine-induced itching; assay: Histamine-induced itching animal behavioral test, local intradermal injection co-administered with histamine; assay type: in vivo, male C57BL/6 mice; conditions: 1 μM/50 μl intradermal, at the same time as histamine 100 μg/site; FIG. 2
Method: An effect of inhibiting or alleviating itching was tested using the local intradermal injection prepared according to Preparation Example 1.
The test was carried out in the same manner as in Experimental Example 1, except for the following. For the itching-induced animal behavioral model test, 1 μM/50 μl of the local intradermal injection prepared according to Preparation Example 1 was injected intradermally into the back of the neck of each mouse. In addition, upon administration of the preparation, 50 μl (100 μg/site) of histamine was injected intradermally at the same time.

[3] = test system: skin-afferent nerve tissue; assay: Histamine-induced peripheral nerve activity in preserved skin-afferent nerve tissue; conditions: histamine administered to the sole of the foot; FIG. 3
Method: Histamine-induced itching is known to occur through peripheral nerve excitation. In the present experimental example, it was examined whether histamine-induced peripheral nerve activity was blocked by riboflavin.
After securing preserved skin-afferent nerve tissue, histamine was administered to the sole of the foot to confirm nerve activity, and such histamine-induced nerve activity was blocked by riboflavin (see FIG. 3).

[4] = test system: spinal cord dorsal root ganglion cells; assay: Histamine-induced current, membrane voltage clamp method; assay type: cell-based; conditions: primary cultured mouse dorsal root ganglion cells, FIG. 4
Method: In addition, to confirm an effect of riboflavin on blocking histamine-induced peripheral nerve activity, it was examined using a membrane voltage clamp method whether a histamine-induced current was inhibited by riboflavin.
To this end, spinal cord dorsal root ganglion cells of each mouse were isolated and primarily cultured, and then electrophysiological characteristics of the spinal cord dorsal root ganglion cells were recorded using the membrane voltage clamp method.

[5] = biological target: T1, TRPV1 (Homo sapiens, UniProt Q8NER1); assay: Capsaicin current blocking in TRPV1-expressing HEK293 cells; assay type: cell-based; conditions: TRPV1-expressing HEK 293 cells
T1 construct: expressed in transfected cells; host or cells: HEK 293 cells
Excerpt: TRPV1 was expressed in HEK 293 cells to carry out a capsaicin current blocking experiment. Under these conditions, riboflavin excluded other channels and a direct effect of riboflavin was examined. The results are illustrated in FIG. 5. FIG. 5 illustrates results of confirming that a capsaicin-induced current was inhibited by riboflavin.

[6] = test system: histamine-induced itching; assay: Histamine-induced itching animal behavioral test, preparation for transdermal administration; assay type: in vivo, male C57BL/6 mice
Method: An effect of inhibiting or alleviating itching was tested using the preparation for transdermal administration prepared according to Preparation Example 2. For the test, an animal behavioral experiment was carried out in the same manner as in Experimental Example 1.
In particular, 30 minutes before 100 μg/50 μl of histamine was injected, the preparation for transdermal administration was applied on the skin, and then the preparation was removed 5 minutes before histamine was injected.

T1 sequence (Q8NER1 whole entry, species assumed): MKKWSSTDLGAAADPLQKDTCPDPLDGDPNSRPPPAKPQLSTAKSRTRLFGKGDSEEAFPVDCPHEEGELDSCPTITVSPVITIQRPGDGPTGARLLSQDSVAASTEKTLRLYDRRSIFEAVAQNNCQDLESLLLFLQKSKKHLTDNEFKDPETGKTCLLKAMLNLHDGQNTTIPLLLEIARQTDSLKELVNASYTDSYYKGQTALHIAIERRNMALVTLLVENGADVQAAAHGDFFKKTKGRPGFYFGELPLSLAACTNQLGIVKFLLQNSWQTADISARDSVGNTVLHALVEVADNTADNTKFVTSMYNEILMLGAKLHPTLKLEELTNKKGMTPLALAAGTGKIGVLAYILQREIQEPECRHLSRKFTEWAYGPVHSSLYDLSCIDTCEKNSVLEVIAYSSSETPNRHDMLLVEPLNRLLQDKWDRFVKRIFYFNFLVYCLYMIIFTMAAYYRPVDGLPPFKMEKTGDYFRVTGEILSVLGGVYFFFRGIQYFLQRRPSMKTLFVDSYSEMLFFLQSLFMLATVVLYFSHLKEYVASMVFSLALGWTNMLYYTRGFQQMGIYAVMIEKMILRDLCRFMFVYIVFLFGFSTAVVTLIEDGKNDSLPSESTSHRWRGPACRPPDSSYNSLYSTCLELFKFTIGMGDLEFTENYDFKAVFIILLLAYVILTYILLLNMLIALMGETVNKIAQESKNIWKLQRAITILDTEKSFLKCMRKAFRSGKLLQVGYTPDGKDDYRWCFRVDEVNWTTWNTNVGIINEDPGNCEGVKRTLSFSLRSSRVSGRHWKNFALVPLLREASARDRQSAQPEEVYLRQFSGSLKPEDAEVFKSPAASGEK

Row | Structure (SMILES) | dose dependence of effect on inhibiting histamine-induced itching ([1]; oral 100, 300, 600 mg/kg) | histamine-induced itching responses (number of scratches) ([1]; oral 100, 300 or 600 mg/kg, 30 minutes before histamine 500 μg/site intradermal, observed 30 minutes) | histamine-induced itching responses (number of scratches) [2] | histamine-induced nerve activity [3] | histamine-induced inward current [4] | capsaicin-induced current blocking effect at 100 nM ([5]; 100 nM) | capsaicin-induced current blocking effect ([5]; several concentrations, FIG. 5) | histamine-induced itching responses ([6]; 1 mM in Vaseline cream on skin 30 minutes before histamine 100 μg/50 μl, removed 5 minutes before, observed 30 minutes, FIG. 8) | itching behavioral responses (number of times) ([6]; 1 mM transdermal preparation, control 142 times, 30 minutes) [times]
1 | Cc1cc2nc3c(=O)[nH]c(=O)nc-3n(C[C@H](O)[C@H](O)[C@H](O)CO)c2cc1C [riboflavin] | dose-dependent pattern | itching responses were reduced | itching responses were reduced | blocked | the current is blocked | did not effectively block TRPV1 | statistically significant effect of blocking channels in a concentration-dependent manner |  | 
2 | Cc1cc2nc3c(=O)[nH]c(=O)nc-3n(C[C@H](O)[C@H](O)[C@H](O)CO)c2cc1N(C)C [roseoflavin, 8-demethyl-8-(dimethylamino)-riboflavin] |  |  |  |  |  |  |  | itching responses were reduced | 60
